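Tested at 5 concentrations; 48 h exposure; 96-well plates; endpoints linearly interpolated, else capped at highest concentration. GI50 is the concentration that inhibits growth by half. Definition used: TGI = concentration required for complete inhibition of growth.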
Key:
Assay in all cases: NCI tumour cell line growth inhibition, 48 h
[1] = test system: A498 renal
[2] = test system: 786-0 renal
[3] = test system: NCI/ADR-RES ovarian
[4] = test system: T-47D breast
[5] = test system: TK-10 renal
[6] = test system: MDA-MB-231 breast
[7] = test system: HCC-2998 colon
[8] = test system: CAKI-1 renal
[9] = test system: SW-620 colon
[10] = test system: RXF 393 renal
[11] = test system: KM12 colon
[12] = test system: IGROV1 ovarian
[13] = test system: NCI-H522 lung
[14] = test system: SF-268 CNS
[15] = test system: SNB-75 CNS
[16] = test system: HOP-62 NSCLC
[17] = test system: ACHN renal
[18] = test system: OVCAR-8 ovarian
[19] = test system: OVCAR-5 ovarian
[20] = test system: MCF7 breast
[21] = test system: SNB-19 CNS
[22] = test system: MOLT-4 leukemia
[23] = test system: PC-3 prostate
[24] = test system: CCRF-CEM leukemia
[25] = test system: HS 578T breast
[26] = test system: UACC-62 melanoma
[27] = test system: OVCAR-4 ovarian
[28] = test system: OVCAR-3 ovarian
[29] = test system: RPMI-8226 leukemia
[30] = test system: NCI-H226 lung
[31] = test system: HCT-116 colon
[32] = test system: K-562 leukemia
[33] = test system: MALME-3M melanoma
[34] = test system: U251 CNS
[35] = test system: LOX IMVI melanoma
[36] = test system: UO-31 renal
[37] = test system: BT-549 breast
[38] = test system: SF-295 CNS
[39] = test system: UACC-257 melanoma
[40] = test system: HCT-15 colon
[41] = test system: HT29 colon
[42] = test system: SK-MEL-5 melanoma
[43] = test system: SR leukemia
[44] = test system: COLO 205 colon
[45] = test system: A549 NSCLC
[46] = test system: HL-60(TB) leukemia
[47] = test system: HOP-92 NSCLC
[48] = test system: EKVX NSCLC
[49] = test system: SF-539 CNS
[50] = test system: SN12C renal
[51] = test system: SK-OV-3 ovarian
[52] = test system: NCI-H23 lung
[53] = test system: NCI-H460 lung
[54] = test system: SK-MEL-2 melanoma

COc1cc2ncn(-c3cc(O[C@H](C)c4ccccc4Cl)c(C(N)=O)s3)c2cc1OC
GI50 [1]: 12.1 nM | TGI [1]: 194 nM | GI50 [2]: 41.2 nM | TGI [2]: 3110 nM | GI50 [3]: 8.12 nM | TGI [3]: 8720 nM | GI50 [4]: 146 nM | TGI [4]: 7760 nM | GI50 [5]: 414 nM | TGI [5]: 4450 nM | GI50 [6]: 21 nM | TGI [6]: > 25000 nM | GI50 [7]: 14.8 nM | TGI [7]: 6180 nM | GI50 [8]: 99.9 nM | TGI [8]: 20800 nM | GI50 [9]: 5.5 nM | TGI [9]: 5570 nM | GI50 [10]: 9.47 nM | TGI [10]: 3530 nM | GI50 [11]: 7.28 nM | TGI [11]: 3860 nM | GI50 [12]: 19.7 nM | TGI [12]: 12900 nM | GI50 [13]: 6.56 nM | TGI [13]: 2840 nM | GI50 [14]: 16 nM | TGI [14]: 20100 nM | GI50 [15]: 23.8 nM | TGI [15]: 3590 nM | GI50 [16]: 15.8 nM | TGI [16]: > 25000 nM | GI50 [17]: 1040 nM | TGI [17]: > 25000 nM | GI50 [18]: 11.4 nM | TGI [18]: 11800 nM | GI50 [19]: 13.9 nM | TGI [19]: > 23800 nM | GI50 [20]: 4.31 nM | TGI [20]: 5600 nM | GI50 [21]: 22.5 nM | TGI [21]: > 25000 nM | GI50 [22]: 9.79 nM | TGI [22]: 3760 nM | GI50 [23]: 14.1 nM | TGI [23]: > 25000 nM | GI50 [24]: 2.5 nM | TGI [24]: 13100 nM | GI50 [25]: 65.2 nM | TGI [25]: 804 nM | GI50 [26]: 154 nM | TGI [26]: 7430 nM | GI50 [27]: 3670 nM | TGI [27]: > 25000 nM | GI50 [28]: 6.64 nM | TGI [28]: 2150 nM | GI50 [29]: 10.2 nM | TGI [29]: 3990 nM | GI50 [30]: 228 nM | TGI [30]: 6990 nM | GI50 [31]: 10.2 nM | TGI [31]: 6440 nM | GI50 [32]: 8.74 nM | TGI [32]: > 25000 nM | GI50 [33]: 1710 nM | TGI [33]: 12300 nM | GI50 [34]: 16.1 nM | TGI [34]: > 25000 nM | GI50 [35]: 10.5 nM | TGI [35]: 4370 nM | GI50 [36]: 482 nM | TGI [36]: 12100 nM | GI50 [37]: 88.8 nM | TGI [37]: 4440 nM | GI50 [38]: 12.7 nM | TGI [38]: > 25000 nM | GI50 [39]: 2930 nM | TGI [39]: 15400 nM | GI50 [40]: 10.7 nM | TGI [40]: > 25000 nM | GI50 [41]: 4.32 nM | TGI [41]: 4260 nM | GI50 [42]: 9.12 nM | TGI [42]: 1080 nM | GI50 [43]: 7.92 nM | TGI [43]: > 6400 nM | GI50 [44]: 5.44 nM | TGI [44]: 4580 nM | GI50 [45]: 14 nM | TGI [45]: > 14400 nM | GI50 [46]: 6.81 nM | TGI [46]: 3890 nM | GI50 [47]: 489 nM | TGI [47]: 7470 nM | GI50 [48]: 87.2 nM | TGI [48]: > 25000 nM | GI50 [49]: 10.9 nM | TGI [49]: 2740 nM | GI50 [50]: 69.2 nM | TGI [50]: > 21500 nM | GI50 [51]: 9.7 nM | TGI [51]: 12700 nM | GI50 [52]: 10 nM | TGI [52]: 4390 nM | GI50 [53]: 9.55 nM | TGI [53]: 1240 nM | GI50 [54]: 6.79 nM | TGI [54]: 5020 nM

Source: PubChem BioAssay (NCI)
